We go through twelve compounds from patent US20110245088A1, “AMIDE-BASED SOLUTION-PHASE DERIVED LIBRARY AND METHOD FOR SCREENING THEREOF” (NATIONAL TSING HUA UNIVERSITY, priority 2010, published 2011).

Structures are written as SMILES. “Also recorded” adds a separate entry of the source. Like-named read-outs stand apart in the source and are kept apart here.

One data set has as its system A549 cell line. Put plainly: Cytotoxicity by MTT assay, A549 cell line. In kind it is cell-based, Human. Particulars: for IC50: A549 cell line, purified compounds, incubation of 2 days, read-out: IC 50 of the Compounds Purified from Independent Synthesis, A549. The procedure:
(§1) The cell lines were used in the present invention, including A549 (Human type II epithelial cell line, from American Type Culture Collection, Manassas, Va.) and MCF7 (solid human estrogen receptor positive breast carcinoma). A 10 μl coupling product solution was added into the well of microtiterplate planted with 100 μl of above mentioned cell lines in a concentration of 30000 cells/mL. Furthermore, the coupling product in each well was diluted before transferring to the plate. Thus the appropriate working concentration could be determined since the cellular survival ratio of most compounds acting as negative control is greater than 80%. The method was illustrated in FIG. 3. After an incubation of 2 days, the supernatants were washed, followed by adding MTT reagents. After 4 hours, absorbance at 580 nm was recorded according to the usual protocol.
For orientation: Formazan colour is commonly taken as a measure of viable cells.

The next data set deals with MCF7 cell line. Put plainly: Cytotoxicity by MTT assay, MCF7 cell line. In kind it is cell-based, human. Particulars: for IC50: MCF7 cell line, purified compounds, incubation of 2 days, read-out: IC 50 of the Compounds Purified from Independent Synthesis, MCF7; for biological activity (cytotoxicity) in crude library assay: crude coupling products, MCF7 (FIGS. 4a-c; cell line not always given). The procedure:
as §1

On to `O=C(NCC1OC(n2ccc(=O)[nH]c2=O)C(O)C1O)c1ccccc1` (centres unmarked) [U1], for which the IC50 with A549 cell line and in the data set with MCF7 cell line was more than 100 µM in each case.
In the case of `CCCCCCCCCCCC(=O)NC[C@H]1O[C@@H](n2ccc(=O)[nH]c2=O)[C@H](O)[C@@H]1O` [U27], the IC50 with A549 cell line is more than 100 µM. Further, in the data set with MCF7 cell line, the IC50 is approximately 100 µM and the “biological activity (cytotoxicity) in crude library assay” value (“biological activity (cytotoxicity)” for short) is reported as “exhibited biological activity; also recorded: subtle cytotoxicity”.
Regarding `C=C(CC)C(=O)c1ccc(OCC(=O)O)c(Cl)c1Cl` [D15, 2-(2,3-dichloro-4-(2-methylenebutanoyl)phenoxy)acetic acid, reference compound], the IC50 was 84 ± 16 µM in the data set with A549 cell line (Homo sapiens, 48 h) and 26 ± 2 µM in the data set on MCF7 cell line (Homo sapiens, 48 h).
Consider `C=C(CC)C(=O)c1ccc(OCC(=O)NCCCC)c(Cl)c1Cl` [C15], for which, in the data set with A549 cell line, the IC50 is 18 µM. Besides, in the data set with MCF7 cell line, the IC50 is 8 ± 5 µM and the “biological activity (cytotoxicity)” value was “exhibited biological activity”.
Turning to `O=C(O)CCC(=O)c1ccc(-c2ccccc2)cc1` [D18, 4-([1,1′-biphenyl]-4-yl)-4-oxobutanoic acid, reference compound], the IC50 in the data set with A549 cell line (Homo sapiens, 48 h) is more than 100 µM; with MCF7 cell line (Homo sapiens, 48 h), more than 100 µM.
As for `CCCCNC(=O)c1cccc(C(=O)c2ccc(F)cc2)c1` [C16], the IC50 in the data set on A549 cell line and with MCF7 cell line was more than 100 µM throughout.
For `O=C(O)c1cccc(C(=O)c2ccc(F)cc2)c1` [D16, 3-(4-fluorobenzoyl)benzoic acid, reference compound], the IC50 in the data set with A549 cell line (Homo sapiens, 48 h) is more than 100 µM; in the data set with MCF7 cell line (Homo sapiens, 48 h), more than 100 µM.
On to `C=C(CC)C(=O)c1ccc(OCC(=O)NC[C@H]2O[C@@H](n3ccc(=O)[nH]c3=O)C[C@@H]2O)c(Cl)c1Cl` [A15], for which the IC50 in the data set on A549 cell line and with MCF7 cell line was more than 100 µM throughout. The “biological activity (cytotoxicity)” value in the data set with MCF7 cell line is reported as “exhibited biological activity”.
Regarding `CCCCNC(=O)CCC(=O)c1ccc(-c2ccccc2)cc1` [C18], the values for the IC50 in the data set with A549 cell line and with MCF7 cell line were 100 µM and 87 µM, respectively. For the same compound, the “biological activity (cytotoxicity)” value in the data set with A549 cell line (crude coupling products, A549) is “unexpected bioactivity”; in the data set on MCF7 cell line, “exhibited biological activity; also recorded: unexpected bioactivity”.
In the case of `O=C(CCC(=O)c1ccc(-c2ccccc2)cc1)NCC1OC(n2ccc(=O)[nH]c2=O)C(O)C1O` (centres unmarked) [U18], the IC50 in the data set with A549 cell line and with MCF7 cell line was more than 100 µM throughout.
On to `N.N.[Cl][Pt][Cl]` [Cisplatin, reference compound], for which the IC50 with A549 cell line was found to be 8 ± 3 µM; in the data set on MCF7 cell line, 25 ± 6 µM.
With `O=C(NCC1OC(n2ccc(=O)[nH]c2=O)CC1O)c1cccc(C(=O)c2ccc(F)cc2)c1` (centres unmarked) [A16], the IC50 with A549 cell line and in the data set on MCF7 cell line was more than 100 µM in each case.
